Tested on: infected lesion (Candida albicans, left thigh)
Format: in vivo, mice (C57/BL)
Conditions: Candida-inoculated mice, day 8; GMCSF intramuscularly 3 days before PET; FDG 2 mCi/Kg via tail vein, PET 3 hours later; p<0.05 vs pre-GMCSF
Method: Candida albicans was suspended in saline to achieve a concentration of 2.5×10^9 yeast cells/ml. Three mice (C57/BL, Jackson Laboratories, Bar Harbor, Me.) were injected intramuscularly in the left thigh with 5×10^8 Candida albicans cells suspended in 0.2 ml of saline. The right thigh was injected with 0.2 ml of saline as a control.
Imaging of the animals was performed on days 5 and 8 after Candida inoculation. […] GMCSF was administered intramuscularly immediately after the first PET images were obtained (3 days prior to the second PET imaging).

## GMCSF: granulocyte-macrophage colony stimulating factor, immune modulator; FDA approved under the tradename Leukine
  FDG uptake within the infected lesion, post-GMCSF: 8150 nCi/cc

Source: US20080260650A1, “Methods of Detection and Therapy of Inflamed Tissues Using Immune Modulation” (THE GENERAL HOSPITAL Corporation, priority 2004, published 2008)
